Test results published in US8575321B2, “Benzylbenzene derivatives and methods of use” (Theracos, Inc., priority 2007, dated 2013).

Columns and labels:
human SGLT1 = target: T1, human SGLT1 (Homo sapiens, UniProt P13866); assay: Methyl-α-D-[U-14C]glucopyranoside uptake assay in COS-7 cells expressing human SGLT1; type: cell-based; conditions: 2 h incubation
T1 construct: Full-length human SGLT1 cDNA on pDream2.1 expression vector; host or cells: COS-7 cells (American Type Culture Collection)
T1 sequence (P13866 1-664): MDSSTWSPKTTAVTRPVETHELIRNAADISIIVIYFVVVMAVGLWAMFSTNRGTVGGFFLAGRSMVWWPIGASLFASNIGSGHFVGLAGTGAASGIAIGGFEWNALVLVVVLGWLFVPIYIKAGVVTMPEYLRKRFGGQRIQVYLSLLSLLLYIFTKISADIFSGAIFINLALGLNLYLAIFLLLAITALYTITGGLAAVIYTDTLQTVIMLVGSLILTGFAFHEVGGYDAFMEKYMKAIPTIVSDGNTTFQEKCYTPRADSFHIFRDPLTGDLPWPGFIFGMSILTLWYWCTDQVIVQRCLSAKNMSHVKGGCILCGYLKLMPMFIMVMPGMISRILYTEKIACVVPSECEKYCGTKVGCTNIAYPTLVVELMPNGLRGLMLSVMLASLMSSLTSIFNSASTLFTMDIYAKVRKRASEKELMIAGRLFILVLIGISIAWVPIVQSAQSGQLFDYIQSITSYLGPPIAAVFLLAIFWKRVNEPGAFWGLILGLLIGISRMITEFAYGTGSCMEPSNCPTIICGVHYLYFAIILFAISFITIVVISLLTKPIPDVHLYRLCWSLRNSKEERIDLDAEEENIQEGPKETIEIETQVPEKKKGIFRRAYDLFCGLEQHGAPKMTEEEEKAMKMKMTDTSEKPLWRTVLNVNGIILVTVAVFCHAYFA
Procedure: Full-length human SGLT1 cDNA on pDream2.1 expression vector was obtained from GenScript Corporation and propagated in Escherichia coli strain DH5α using Luria-Bertani (LB) medium containing ampicillin. Plasmid DNA was isolated using the QIAGEN Plasmid Midi Kit (QIAGEN Inc.). […] Transfected cells were stored in DMEM containing 10% dimethyl sulfoxide (DMSO) at −80° C.
(§1) Cells expressing SGLT1 or SGLT2 were seeded on 96-well ScintiPlate scintillating plates (PerkinElmer, Inc.) in DMEM containing 10% FBS (1×10^5 cells per well in 100 μl medium) incubated at 37° C. under 5% CO2 for 48 h prior to the assay. Cells were washed twice with 150 μl of either sodium buffer (137 mM NaCl, 5.4 mM KCl, 2.8 mM CaCl2, 1.2 mM MgCl2, 10 mM tris(hydroxymethyl)aminomethane/N^2-hydroxyethylpiperazine-N′-ethanesulfonic acid [Tris/Hepes], pH 7.2) or sodium-free buffer (137 mM N-methyl-glucamine, 5.4 mM KCl, 2.8 mM CaCl2, 1.2 mM MgCl2, 10 mM Tris/Hepes, pH 7.2). Test compound in 50 μl each of sodium or sodium-free buffer containing 40 μCi/ml methyl-α-D-[U-^14C]glucopyranoside (Amersham Biosciences/GE Healthcare), either with (symbols in parentheses) or without (symbols without parentheses) 25% human serum, was added per well of a 96-well plate and incubated at 37° C. with shaking for either 2 h (SGLT1 assay) or 1.5 h (SGLT2 assay). Cells were washed twice with 150 μl of wash buffer (137 mM N-methylglucamine, 10 mM Tris/Hepes, pH 7.2) and methyl-α-D-[U-^14C]glucopyranoside uptake was quantitated using a TopCount scintillation counter (PerkinElmer, Inc.). Sodium-dependent glucopyranoside uptake was measured by subtracting the values obtained with sodium-free buffer from those obtained using sodium buffer (average of triplicate determinations).

human SGLT2 = target: T2, human SGLT2 (Homo sapiens, UniProt P31639); assay: Methyl-α-D-[U-14C]glucopyranoside uptake assay in HEK293.ETN cells stably expressing human SGLT2; type: cell-based; conditions: 1.5 h incubation
T2 construct: A full-length cDNA clone expressing human SGLT2
T2 sequence (P31639 1-672): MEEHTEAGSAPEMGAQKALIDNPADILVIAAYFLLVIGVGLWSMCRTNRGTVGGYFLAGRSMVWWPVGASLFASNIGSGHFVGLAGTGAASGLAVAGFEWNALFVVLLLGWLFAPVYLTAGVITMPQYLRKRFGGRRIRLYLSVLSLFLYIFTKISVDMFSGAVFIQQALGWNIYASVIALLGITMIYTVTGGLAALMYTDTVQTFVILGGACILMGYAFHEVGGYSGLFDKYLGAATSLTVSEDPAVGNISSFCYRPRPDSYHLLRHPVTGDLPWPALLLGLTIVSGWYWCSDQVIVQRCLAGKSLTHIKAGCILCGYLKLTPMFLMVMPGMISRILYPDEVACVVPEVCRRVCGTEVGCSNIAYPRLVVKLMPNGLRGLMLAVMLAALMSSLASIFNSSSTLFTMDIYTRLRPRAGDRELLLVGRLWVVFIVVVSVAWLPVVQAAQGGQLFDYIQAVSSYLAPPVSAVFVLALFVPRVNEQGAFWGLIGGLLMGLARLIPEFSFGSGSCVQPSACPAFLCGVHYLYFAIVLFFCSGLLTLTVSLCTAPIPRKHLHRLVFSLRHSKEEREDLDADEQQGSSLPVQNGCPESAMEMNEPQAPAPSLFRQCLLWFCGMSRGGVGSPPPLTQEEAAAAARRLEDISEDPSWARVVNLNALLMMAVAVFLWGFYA
Source text: A full-length cDNA clone expressing human SGLT2 (GenScript Corporation) was subcloned into Hind III and Not I sites of pEAK15 expression vector. Clones harboring the cDNA inserts were identified by restriction analysis.
Plasmid containing human SGLT2 was linearized with Nsi I and purified by agarose gel electrophoresis. Using Lipofectamine 2000 Transfection Reagent (Invitrogen Corporation), DNA was transfected into HEK293.ETN cells and cultured in Dulbecco's Modified Eagle Medium (DMEM) containing 10% fetal bovine serum (FBS) at 37° C. under 5% CO2 for 24 h. Transfectants were selected in the same growth medium supplemented with puromycin (Invitrogen Corporation) for two weeks. Puromycin-resistant cells were recovered and seeded on a fresh 96-well plate (single cell per well) and cultured in the presence of puromycin until cells became confluent. Puromycin-resistant clones were evaluated for SGLT2 activity in the methyl-α-D-[U-^14C]glucopyranoside uptake assay described below.
as §1

[1] = incubation with 25% human serum (symbols in parentheses)
[2] = without human serum (symbols without parentheses)

Row | Structure (SMILES) | IC50 (human SGLT1; [1]) | IC50 (human SGLT2; [1]) | IC50 (human SGLT1; [2]) | IC50 (human SGLT2; [2])
1 | OC[C@H]1O[C@@H](c2ccc(Cl)c(Cc3ccc(CCOC4CC4)cc3)c2)[C@H](O)[C@@H](O)[C@@H]1O [Compound CT, (2S,3R,4R,5S,6R)-2-(4-chloro-3-(4-(2-cyclopropoxyethyl)benzyl)phenyl)-6-(hydroxymethyl)tetrahydro-2H-pyran-3,4,5-triol] | > 10000 nM | < 1000 nM |  | 
2 | OCC#CCOc1ccc(Cc2cc([C@@H]3O[C@H](CO)[C@@H](O)[C@H](O)[C@H]3O)ccc2Cl)cc1 [Compound X, (2S,3R,4R,5S,6R)-2-(4-chloro-3-(4-(4-hydroxybut-2-ynyloxy)benzyl)phenyl)-6-(hydroxymethyl)tetrahydro-2H-pyran-3,4,5-triol] | 1000 to 10000 nM | < 1000 nM |  | 
3 | OC[C@H]1O[C@@H](c2ccc(Cl)c(Cc3ccc(OCCOC4CCC4)cc3)c2)[C@H](O)[C@@H](O)[C@@H]1O [Compound CM, (2S,3R,4R,5S,6R)-2-(4-chloro-3-(4-(2-cyclobutoxyethoxy)benzyl)phenyl)-6-(hydroxymethyl)tetrahydro-2H-pyran-3,4,5-triol] | > 10000 nM | < 1000 nM |  | 
4 | COCCOCCOc1ccc(Cc2cc([C@@H]3O[C@H](CO)[C@@H](O)[C@H](O)[C@H]3O)ccc2Cl)cc1 [Compound M, (2S,3R,4R,5S,6R)-2-(4-chloro-3-(4-(2-(2-methoxyethoxy)ethoxy)benzyl)phenyl)-6-(hydroxymethyl)tetrahydro-2H-pyran-3,4,5-triol] |  |  | 1000 to 10000 nM | < 1000 nM
5 | OC[C@H]1O[C@@H](c2ccc(Cl)c(Cc3ccc(OC/C=C/C4CC4)cc3)c2)[C@H](O)[C@@H](O)[C@@H]1O [Compound BZ, (2S,3R,4R,5S,6R)-2-(4-chloro-3-(4-((E)-3-cyclopropylallyloxy)benzyl)phenyl)-6-(hydroxymethyl)tetrahydro-2H-pyran-3,4,5-triol] | > 10000 nM | < 1000 nM |  | 
6 | OC[C@H]1O[C@@H](c2ccc(Cl)c(Cc3ccc(OCCOCCN4CCCC4)cc3)c2)[C@H](O)[C@@H](O)[C@@H]1O [Compound CH, (2S,3R,4R,5S,6R)-2-(4-chloro-3-(4-(2-(2-(pyrrolidin-1-yl)ethoxy)ethoxy)benzyl)phenyl)-6-(hydroxymethyl)tetrahydro-2H-pyran-3,4,5-triol] | 1000 to 10000 nM | < 1000 nM |  | 
7 | OC[C@H]1O[C@@H](c2ccc(Cl)c(Cc3ccc(OCCOCC(F)(F)F)cc3)c2)[C@H](O)[C@@H](O)[C@@H]1O [Compound BT, (2S,3R,4R,5S,6R)-2-(4-chloro-3-(4-(2-(2,2,2-trifluoroethoxy)ethoxy)benzyl)phenyl)-6-(hydroxymethyl)tetrahydro-2H-pyran-3,4,5-triol] | 1000 to 10000 nM | < 1000 nM |  | 
8 | C#CCOCCOc1ccc(Cc2cc([C@@H]3O[C@H](CO)[C@@H](O)[C@H](O)[C@H]3O)ccc2Cl)cc1 [Compound R, (2S,3R,4R,5S,6R)-2-(4-chloro-3-(4-(2-(prop-2-ynyloxy)ethoxy)benzyl)phenyl)-6-(hydroxymethyl)tetrahydro-2H-pyran-3,4,5-triol] | 1000 to 10000 nM | < 1000 nM |  | 
9 | OC[C@H]1O[C@@H](c2ccc(Cl)c(Cc3ccc(OCCOCCF)cc3)c2)[C@H](O)[C@@H](O)[C@@H]1O [Compound CC, (2S,3R,4R,5S,6R)-2-(4-chloro-3-(4-(2-(2-fluoroethoxy)ethoxy)benzyl)phenyl)-6-(hydroxymethyl)tetrahydro-2H-pyran-3,4,5-triol] |  |  | 1000 to 10000 nM | < 1000 nM
10 | OC[C@H]1O[C@@H](c2ccc(Cl)c(Cc3ccc(OCCOC4C=CCCC4)cc3)c2)[C@H](O)[C@@H](O)[C@@H]1O (stereo partly drawn) [Compound BW, (2S,3R,4R,5S,6R)-2-(4-chloro-3-(4-(2-(cyclohex-2-enyloxy)ethoxy)benzyl)phenyl)-6-(hydroxymethyl)tetrahydro-2H-pyran-3,4,5-triol] | > 10000 nM | < 1000 nM |  | 
11 | OC[C@H]1O[C@@H](c2ccc(Cl)c(Cc3ccc(OCCOC4CC4)cc3)c2)[C@H](O)[C@@H](O)[C@@H]1O [Compound BQ, (2S,3R,4R,5S,6R)-2-(4-chloro-3-(4-(2-cyclopropoxyethoxy)benzyl)phenyl)-6-(hydroxymethyl)tetrahydro-2H-pyran-3,4,5-triol] | 1000 to 10000 nM | < 1000 nM |  | 
12 | OC[C@H]1O[C@@H](c2ccc(Cl)c(Cc3ccc(CCCOC4CC4)cc3)c2)[C@H](O)[C@@H](O)[C@@H]1O [Compound DJ, (2S,3R,4R,5S,6R)-2-(4-chloro-3-(4-(3-cyclopropoxypropyl)benzyl)phenyl)-6-(hydroxymethyl)tetrahydro-2H-pyran-3,4,5-triol] | 1000 to 10000 nM | < 1000 nM |  | 
13 | C#CCOCC(C)Oc1ccc(Cc2cc([C@@H]3O[C@H](CO)[C@@H](O)[C@H](O)[C@H]3O)ccc2Cl)cc1 (stereo partly drawn) [Compound T, (2S,3R,4R,5S,6R)-2-(4-chloro-3-(4-(1-(prop-2-ynyloxy)propan-2-yloxy)benzyl)phenyl)-6-(hydroxymethyl)tetrahydro-2H-pyran-3,4,5-triol] | > 10000 nM | < 1000 nM |  | 
14 | OC[C@H]1O[C@@H](c2ccc(Cl)c(Cc3ccc(OCCOC4CCCC4)cc3)c2)[C@H](O)[C@@H](O)[C@@H]1O [Compound AD, (2S,3R,4R,5S,6R)-2-(4-chloro-3-(4-(2-(cyclopentyloxy)ethoxy)benzyl)phenyl)-6-(hydroxymethyl)tetrahydro-2H-pyran-3,4,5-triol] | 1000 to 10000 nM | < 1000 nM |  | 
15 | OC[C@H]1O[C@@H](c2ccc(Cl)c(Cc3ccc(COC4CC4)cc3)c2)[C@H](O)[C@@H](O)[C@@H]1O [Compound CX, (2S,3R,4R,5S,6R)-2-(4-chloro-3-(4-(cyclopropoxymethyl)benzyl)phenyl)-6-(hydroxymethyl)tetrahydro-2H-pyran-3,4,5-triol] | > 10000 nM | < 1000 nM |  | 
16 | CC(COc1ccc(Cc2cc([C@@H]3O[C@H](CO)[C@@H](O)[C@H](O)[C@H]3O)ccc2Cl)cc1)OC1CC1 (stereo partly drawn) [Compound DC, (2S,3R,4R,5S,6R)-2-(4-chloro-3-(4-(2-cyclopropoxypropoxy)benzyl)phenyl)-6-(hydroxymethyl)tetrahydro-2H-pyran-3,4,5-triol] | 1000 to 10000 nM | < 1000 nM |  | 
